Results as given in patent publication US20050170989A1, “Fluorine-containing water-soluble nonionic surface-active compounds, use thereof and process for preparation of the compounds” (DAIKIN INDUSTRIES, LTD., priority 2002, published 2005).

Experiments:
Format in all cases: physicochemical
[1] = Water solubility evaluation, observed with the naked eye; details: 25° C.; for Water Solubility 1%: 1 wt. % aqueous mixture; for Water Solubility 5%: 5 wt. % aqueous mixture; for Water Solubility 50%: 50 wt. % aqueous mixture
Method: For the evaluation of water solubility, a uniform liquid was used that was obtained by heating each compound at about 60° C. 5g aqueous mixtures were prepared at predetermined concentrations (1 wt. %, 5 wt. % and 50 wt. %) in capped sample bottles.

[2] = Static surface tension by the Wilhelmy method (plate method); details: 0.1 wt. % aqueous solution, left 1 day, 25° C.
Method: For the measurement of surface tension, a uniform liquid was used that was obtained by heating each compound at about 60° C. The compounds were each dissolved in water to prepare 10 g of 0.1 wt. % aqueous solutions. After the aqueous solutions were left to stand for 1 day, the static surface tension thereof was measured at 25° C. according to the Wilhelmy method (plate method). The measurement instrument used was a “SURFACE TENSIOMETER CBVP-A3” (product of Kyowa Interface Science Co., Ltd.).

[3] = Dynamic surface tension by the maximum bubble pressure method; details: 0.5 wt. % aqueous solution, 25° C., at 100 milliseconds
Method: For the measurement of dynamic surface tension, each compound was dissolved in water, heated if necessary, to prepare 80 g of 0.5 wt. % aqueous solutions. The dynamic surface tension thereof was measured at 25° C. according to the maximum bubble pressure method. The obtained value was that measured at 100 milliseconds. The measurement instrument used was a “KRUSS BUBBLE PRESSURE TENSIOMETER-BP2”.

Substance | Water Solubility 1% [1] | Water Solubility 5% [1] | Water Solubility 50% [1] | Static Surface Tension 0.10% [2] | Dynamic Surface Tension 0.50% [3]
C4F9—CH2CH(OH)CH2O—(CH2CH2O)40—C16H33 [Example 3] | Dissolved | Dissolved | Dissolved | 30.5 mN/m | 45 mN/m
C4F9—CH2CH(OH)CH2O—(CH2CH2O)23—CH2CH(OH)CH2—C4F9 [Example 7] | Dissolved | Dissolved | Dissolved | 18.4 mN/m | 32 mN/m
C4F9—CH2CH(OH)CH2O—(CH2CH2O)35—CH2CH(OH)CH2—C4F9 [Example 8] | Dissolved | Dissolved | Dissolved | 18.6 mN/m | 32 mN/m
C4F9—CH2CH(OH)CH2O—(CH2CH2O)45—CH2CH(OH)CH2—C4F9 [Example 9] | Dissolved | Dissolved | Dissolved | 19.1 mN/m | 34 mN/m
C4F9—CH2CH(OH)CH2O—(CH2CH2O)20—C18H37 [Example 4] | Dissolved | Dissolved | Uniform gel | 24.1 mN/m | 36 mN/m
C18H33COO—(CH2CH2O)23—COC18H33 [Comparative Example 9, reference compound] | Dissolved | Dissolved | Uniform gel | 34.8 mN/m | 61 mN/m
C4F9—CH2CH(OH)CH2O—(CH2CH2O)25—C12H25 [Example 6] | Dissolved | Dissolved | Dissolved | 23.1 mN/m | 35 mN/m
C4F9—CH2CH(OH)CH2O—(CH2CH2O)25—C16H33 [Example 2] | Dissolved | Dissolved | Dissolved | 23.8 mN/m | 34 mN/m
C16H33O—(CH2CH2O)15—H [Comparative Example 8, reference compound] | Dissolved | Suspended | Solid | 37.5 mN/m | 59 mN/m
C4F9—CH2CH(OH)CH2O—(CH2CH2O)21—C12H25 [Example 5] | Dissolved | Dissolved | Dissolved | 21.9 mN/m | 30 mN/m
C4F9—CH2CH(OH)CH2O—(CH2CH2O)23—C16H33 [Example 1] | Dissolved | Dissolved | Dissolved | 24.2 mN/m | 34 mN/m
